Results as given in the NIST ThermoML archive (doi:10.1016/j.tca.2013.03.025).

Assay: xn = mol fraction of the nth substance listed
Conditions: 101 kPa, Liquid; for viscosity: Concentric cylinders viscometry; for mass density: Vibrating tube method

CCCCOC(=O)C(C)O (stereo not given) [butyl 2-hydroxypropanoate] + CC(O)CO
Conditions	mass density [kg/m3]	viscosity [mPa·s]
288.15 K, x1 = 0.0999	1028.94	49.57
288.15 K, x1 = 0.2	1020.52	32.76
288.15 K, x1 = 0.3	1014.01	22.44
288.15 K, x1 = 0.3999	1008.69	16.49
288.15 K, x1 = 0.4998	1004.11	12.5
288.15 K, x1 = 0.6	999.883	9.662
288.15 K, x1 = 0.6996	996.116	7.754
288.15 K, x1 = 0.7999	992.836	6.357
288.15 K, x1 = 0.9	990.017	5.352
288.15 K, x1 = 1	987.269	4.628
293.15 K, x1 = 0.0999	1025.09	36.74
293.15 K, x1 = 0.2	1016.49	24.82
293.15 K, x1 = 0.3	1009.81	17.35
293.15 K, x1 = 0.3999	1004.36	12.96
293.15 K, x1 = 0.4998	999.672	9.963
293.15 K, x1 = 0.6	995.344	7.814
293.15 K, x1 = 0.6996	991.481	6.325
293.15 K, x1 = 0.7999	988.111	5.256
293.15 K, x1 = 0.9	985.199	4.454
293.15 K, x1 = 1	982.366	3.88
298.15 K, x1 = 0.0999	1021.19	27.81
298.15 K, x1 = 0.2	1012.41	19.18
298.15 K, x1 = 0.3	1005.65	13.58
298.15 K, x1 = 0.3999	1000	10.3
298.15 K, x1 = 0.4998	995.208	8.084
298.15 K, x1 = 0.6	990.768	6.393
298.15 K, x1 = 0.6996	986.821	5.252
298.15 K, x1 = 0.7999	983.363	4.394
298.15 K, x1 = 0.9	980.366	3.772
298.15 K, x1 = 1	977.448	3.307
303.15 K, x1 = 0.0999	1017.29	21.45
303.15 K, x1 = 0.2	1008.34	15.08
303.15 K, x1 = 0.3	1001.42	10.86
303.15 K, x1 = 0.3999	995.637	8.42
303.15 K, x1 = 0.4998	990.737	6.606
303.15 K, x1 = 0.6	986.189	5.339
303.15 K, x1 = 0.6996	982.143	4.426
303.15 K, x1 = 0.7999	978.595	3.741
303.15 K, x1 = 0.9	975.512	3.226
303.15 K, x1 = 1	972.515	2.86
308.15 K, x1 = 0.0999	1013.34	16.82
308.15 K, x1 = 0.2	1004.23	12.05
308.15 K, x1 = 0.3	997.153	8.886
308.15 K, x1 = 0.3999	991.238	6.935
308.15 K, x1 = 0.4998	986.236	5.542
308.15 K, x1 = 0.6	981.583	4.506
308.15 K, x1 = 0.6996	977.444	3.772
308.15 K, x1 = 0.7999	973.812	3.212
308.15 K, x1 = 0.9	970.644	2.796
308.15 K, x1 = 1	967.567	2.481
313.15 K, x1 = 0.0999	1009.36	13.4
313.15 K, x1 = 0.2	1000.07	9.766
313.15 K, x1 = 0.3	992.852	7.317
313.15 K, x1 = 0.3999	986.813	5.772
313.15 K, x1 = 0.4998	981.71	4.666
313.15 K, x1 = 0.6	976.954	3.848
313.15 K, x1 = 0.6996	972.719	3.25
313.15 K, x1 = 0.7999	969.003	2.791
313.15 K, x1 = 0.9	965.755	2.449
313.15 K, x1 = 1	962.603	2.181
318.15 K, x1 = 0.0999	1005.34	10.83
318.15 K, x1 = 0.2	995.893	8.021
318.15 K, x1 = 0.3	988.531	6.099
318.15 K, x1 = 0.3999	982.364	4.873
318.15 K, x1 = 0.4998	977.162	3.982
318.15 K, x1 = 0.6	972.304	3.319
318.15 K, x1 = 0.6996	967.975	2.828
318.15 K, x1 = 0.7999	964.179	2.449
318.15 K, x1 = 0.9	960.848	2.163
318.15 K, x1 = 1	957.624	1.935
323.15 K, x1 = 0.0999	1001.29	8.864
323.15 K, x1 = 0.2	991.678	6.665
323.15 K, x1 = 0.3	984.178	5.141
323.15 K, x1 = 0.3999	978.01	4.159
323.15 K, x1 = 0.4998	972.59	3.435
323.15 K, x1 = 0.6	967.647	2.889
323.15 K, x1 = 0.6996	963.208	2.483
323.15 K, x1 = 0.7999	959.336	2.166
323.15 K, x1 = 0.9	955.922	1.924
323.15 K, x1 = 1	952.631	1.728
